The values below are quoted from earlier work in patent publication US9872864B2, “Sustained release composition of prostacyclin” (priority 2011, dated 2018).

The conditions of this series: background statement.

As for `CCCCC[C@H](O)CC[C@@H]1[C@H]2Cc3cccc(OCC(=O)O)c3C[C@H]2C[C@H]1O` [treprostinil], the half-life was 4 h.
